Test results taken from ChEMBL document CHEMBL3227939, “Synthesis of daunorubicin analogues with novel 9-acyl substituents” (1979).

Tests used:
L1210 [1] = test: Inhibition of DNA synthesis in mouse L1210 cells; type: functional; details: read-out: ED50 (the source's name)
L1210 [2] = test: Inhibition of RNA synthesis in mouse L1210 cells; type: functional; details: read-out: ED50 (the source's name)
P388 [3] = test: Antitumor activity against mouse P388 cells allografted in CDF/RDF mouse assessed as increase in survival time at 3.13 mg/kg, ip administered once daily on days 1 to 9 relative to control; type: functional; details: route intraperitoneal
P388 [4] = test: Antitumor activity against mouse P388 cells allografted in CDF/RDF mouse assessed as increase in survival time at 37.5 mg/kg, ip administered once daily on day 5, 9 and 13 relative to control; type: functional; details: route intraperitoneal
Calf thymus DNA = test: Binding affinity to calf thymus DNA assessed as change in melting temperature; type: nucleic-acid assay; details: Bos taurus
P388 [5] = test: Antitumor activity against mouse P388 cells allografted in CDF/RDF mouse assessed as increase in survival time at 50 mg/kg, ip administered once daily on day 5, 9 and 13 relative to control; type: functional; details: route intraperitoneal
P388 [6] = test: Antitumor activity against mouse P388 cells allografted in CDF/RDF mouse assessed as increase in survival time at 4 mg/kg, ip administered once daily on days 1 to 9 relative to control; type: functional; details: route intraperitoneal
P388 [7] = test: Antitumor activity against mouse P388 cells allografted in CDF/RDF mouse assessed as increase in survival time at 12.5 mg/kg, ip administered once daily on day 5, 9 and 13 relative to control; type: functional; details: route intraperitoneal

Structure (SMILES) | EC50 (L1210 [1]) | EC50 (L1210 [2]) | T/C (P388 [3]) | T/C (P388 [4]) | ΔTm (Calf thymus DNA) | T/C (P388 [5]) | T/C (P388 [6]) | T/C (P388 [7])
COc1cccc2c1C(=O)c1c(O)c3c(c(O)c1C2=O)C[C@@](O)(C(C)=O)C[C@@H]3O[C@H]1C[C@H](N)[C@H](O)[C@H](C)O1 [DAUNORUBICIN] | 0.66 µM | 0.33 µM |  |  |  |  |  | 
COc1cccc2c1C(=O)c1c(O)c3c(c(O)c1C2=O)C[C@@](O)(C(=O)C(C)C)C[C@@H]3O[C@H]1C[C@H](N)[C@H](O)[C@H](C)O1 | 1 µM | 0.4 µM | 117% | 122% | 10.3 °C |  |  | 
COc1cccc2c1C(=O)c1c(O)c3c(c(O)c1C2=O)C[C@@](O)(C=O)C[C@@H]3O[C@H]1C[C@H](N)[C@H](O)[C@H](C)O1 | 4.1 µM | 2 µM |  |  | 6.5 °C | 154% | 169% | 
COc1cccc2c1C(=O)c1c(O)c3c(c(O)c1C2=O)C[C@@](O)(C(=O)CO)C[C@@H]3O[C@H]1C[C@H](N)[C@H](O)[C@H](C)O1 [DOXORUBICIN] | 1.5 µM | 0.58 µM |  |  |  |  |  | 
COc1cccc2c1C(=O)c1c(O)c3c(c(O)c1C2=O)C[C@@](O)(C(=O)CCc1ccccc1)C[C@@H]3O[C@H]1C[C@H](N)[C@H](O)[C@H](C)O1 | 1.5 µM | 1.6 µM |  |  | 8.6 °C | 129% |  | 
CCC(=O)[C@]1(O)Cc2c(O)c3c(c(O)c2[C@@H](O[C@H]2C[C@H](N)[C@H](O)[C@H](C)O2)C1)C(=O)c1c(OC)cccc1C3=O | 0.67 µM | 0.29 µM |  |  | 11 °C |  |  | 128%
